From patent US20260097047A1, “Small molecule inhibitors of the ribosome biogenesis factor NVL2” (Board of Regents, The University of Texas System, priority 2023, published 2026)
“Also recorded” adds a separate entry of the source.

Tests used:
[1] = tested on: p53 and p21 in HCT116 NVL^R403W tumors; experiment: Pharmacodynamic study: p53 and p21 in HCT116 NVL^R403W xenograft tumors; format: in vivo, mouse; details: 35 mg/kg IP, opposing flank of same mice
Experimental: Plasma exposure was dose-dependent up to 35 mg/kg (IP injection) reaching a maximum concentration at 17.86 μM. These levels exceed the anti-proliferative IC99 of MM927 in cells expressing either human or mouse NVL. In a subsequent pharmacodynamic (PD) study, we asked if we could assess on-target NVL inhibition via a subsequent p53 and/or p21 induction in tumor xenografts in mice treated with MM927. We implanted HCT116 NVL^WT and NVL^R403W cells subcutaneously on either flank of the mice and evaluated the levels of p53 and p21 in either tumor at various time points after IP administration of 35 mg/kg of MM927.
Pharmacodynamic study: Five million parental HCT116 cells or HCT116 NVL^R403W in a volume of 0.1 mL were implanted using a subcutaneous injection in the left and right side of four-to-eight-week-old male and female NSG mice, respectively. Tumor volumes were measured every 2 to 4 days with calipers. When the tumor diameter reached 0.5 cm in diameter, mice were dosed with 35 mg/kg MM927 or vehicle formulated as 10% DMSO/10% Kolliphor EL/10% Solutal/70% D5W and administered via the intraperitoneal route. At each time point (0, 3, 6, 12, 24 hours post dose), tumors were harvested and flash frozen for Western blot analysis for p53 and p21 as described.

HCT116 NVL^R403W tumors = experiment: Efficacy study: HCT116 NVL^R403W xenografts; format: in vivo, mouse; details: 35 mg/kg IP twice a day for 21 days
Experimental: Having established the kinetics of MM927 mediated NVL inhibition in xenograft tumors, we administered 35 mg/kg MM927 IP twice a day for 21 days to mice harboring tumors derived from either HCT116 NVL wild type or NVL^R403W cells. […] Taken together, we concluded that the potent, and bioavailable analog MM927 reduces tumor growth in mouse xenografts by inhibiting NVL without toxicity.
Efficacy study: Five million parental HCT116 cells or HCT116 NVL^R403W in a volume of 0.1 mL were implanted in the right flank. Tumor volumes were measured every 2 to 4 days with calipers. Volume is calculated as [(L*W^2)*3.14]/6. When volumes reached ˜110 mm^3, treatment was started with 35 mg/kg MM927 or vehicle control (0.2 mL/mouse) twice a day for 21 days. Mice were euthanized at the end of the 21-day treatment period or when any tumor reached 2 cm in its largest diameter, in agreement with the approved animal protocol. At the end of treatment, blood and tumor tissue were collected for pharmacokinetic analysis, measurement of complete blood counts, and blood chemistry measurements as described. Serum alanine transaminase and blood urea nitrogen were analyzed using VITROS MicroSlide technology.

NVL = target: T1, NVL (Homo sapiens, UniProt O15381); experiment: Viability of NVL^AID/AID cells relying on ectopic human NVL (Ph-IAA); format: cell-based; design: expressed in transfected cells; host or cells: HCT116 NVL^AID/AID cells (viral infection; 'mock infected' control); details: endogenous NVL degraded with Ph-IAA; read-out: IC50, cells expressing ectopic human NVL
T1 sequence (O15381 1-856): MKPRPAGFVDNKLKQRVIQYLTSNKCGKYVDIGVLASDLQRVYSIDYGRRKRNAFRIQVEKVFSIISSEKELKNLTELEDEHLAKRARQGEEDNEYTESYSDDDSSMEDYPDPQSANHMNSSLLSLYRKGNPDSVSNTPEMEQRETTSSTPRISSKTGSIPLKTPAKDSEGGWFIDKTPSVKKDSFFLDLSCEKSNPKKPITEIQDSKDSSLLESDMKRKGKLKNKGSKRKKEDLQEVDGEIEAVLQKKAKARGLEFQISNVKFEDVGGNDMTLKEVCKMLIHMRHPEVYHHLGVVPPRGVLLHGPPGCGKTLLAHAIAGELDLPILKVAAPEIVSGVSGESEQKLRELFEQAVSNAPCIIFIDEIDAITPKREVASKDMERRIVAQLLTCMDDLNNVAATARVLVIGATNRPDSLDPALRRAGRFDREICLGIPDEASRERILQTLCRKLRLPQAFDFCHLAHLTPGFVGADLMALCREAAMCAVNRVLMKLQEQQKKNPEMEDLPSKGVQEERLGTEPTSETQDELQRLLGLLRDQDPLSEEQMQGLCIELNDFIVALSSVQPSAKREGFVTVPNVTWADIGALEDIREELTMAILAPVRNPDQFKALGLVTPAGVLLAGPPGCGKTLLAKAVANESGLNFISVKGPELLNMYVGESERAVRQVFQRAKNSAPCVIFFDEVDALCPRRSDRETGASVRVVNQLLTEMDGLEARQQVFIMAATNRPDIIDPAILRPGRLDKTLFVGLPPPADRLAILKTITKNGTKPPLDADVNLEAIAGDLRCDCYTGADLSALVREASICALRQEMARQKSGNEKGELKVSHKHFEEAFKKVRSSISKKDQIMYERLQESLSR
Excerpt: Next, we investigated whether inhibitors of NVL could inhibit the growth of cell line derived xenografts tumors in mice, and whether systemic inhibition of NVL leads to specific toxicities. […] To test the potency of MM927 against mouse NVL within the same cell type, we ectopically expressed either human or mouse NVL in NVL^AID/AID cells. Treatment with Ph-IAA degrades the endogenous protein so that the cells must rely solely on ectopically expressed NVL. In the mock infected cells, degrading NVL^AID/AID by the addition of Ph-IAA reduced cell viability as expected, and the viability was completely rescued by expression of either ectopic mouse or human NVL.

p53 and p21 = p53 and p21 protein levels in HCT116 cells; format: cell-based, human
Excerpt: Inhibition of 60S ribosome biogenesis is known to induce the stability and upregulation of p53, which could serve as a potential pharmacodynamics marker for MM017 in HCT116 cells. […] We used PRISM (Broad Institute) to evaluate the selectivity of MM017 across 902 cancer cell lines and then correlated this selectivity to 1,215 clinical and pre-clinical compounds in the PRISM database. […] These observations indicate that oxaliplatin and carmofur, like MM017, target ribosome biogenesis.

| Structure (SMILES) | p53 and p21 in NVL^R403W tumor [1] | endpoint tumor burden, NVL^R403W (HCT116 NVL^R403W tumors) | rate of growth of NVL^R403W tumors (HCT116 NVL^R403W tumors) | IC50 (NVL) | p53 levels in parental HCT116 cells (p53 and p21) | p53 and p21 abundance in NVL^P307T cells (p53 and p21; NVL^P307T) |
| --- | --- | --- | --- | --- | --- | --- |
| CC#CCN1C(=O)c2ccc(F)cc2Sc2cc(NC(=O)c3ccc4oc(=O)n(C)c4c3)ccc21 [MM927, N-(10-(But-2-yn-1-yl)-3-fluoro-11-oxo-10,11-dihydrodibenzo[b,f][1,4]thiazepin-7-yl)-3-methyl-2-oxo-2,3-dihydrobenzo[d]oxazole-5-carboxamide] | no change in p53 and p21 | no effect | no significant impact | 51 nM |  |  |
| COCCN1C(=O)c2ccccc2Sc2cc(NC(=O)c3ccoc3)ccc21 [MM017] |  |  |  |  | upregulates p53 levels; also recorded: increase in p53 at 6 hours post treatment; also recorded: dose-dependent increase in the levels of p53 | no changes in the abundance of either protein |
